Measurements published in patent US11974574B2, “Compositions and related methods for modulating endosymbionts” (Flagship Pioneering Innovations V, Inc., priority 2017, dated 2024).
{Cy3} = Cy3 dye attached by click chemistry

Assays:
Myzus persicae [1] = assay: Cy3-PNA in artificial diet, aphid survival (Example 13); format: in vivo; settings: Myzus persicae second and third instar, final 0.5 to 10 mg/L Cy3-PNA, fed 24 hr, mortality checked every 24 h for 4 days
Protocol: Therapeutic Design: Cy3-PNA Solutions are Formulated with 0, 0.5, 1, 5 or 10 mg/L of Cy3-PNA from Example 11 in 10 mL of 0.5% Sucrose and Essential Amino Acids.
(§1) To prepare for the treatment, aphids are grown in a lab environment and medium. In a climate-controlled room (16 h light photoperiod; 60±5% RH; 20±2° C.), plants are grown in a mixture of vermiculite and perlite and are infested with aphids. To limit maternal effects or health differences between plants, 5-10 adults from different plants are distributed among 10 two-week-old plants, and allowed to multiply to high density for 5-7 days. For experiments, second and third instar aphids are collected from healthy plants and divided into treatments so that each treatment receives approximately the same number of individuals from each of the collection plants.
Wells of a 96-well plate are filled with 200 μl of artificial aphid diet (Febvay et al., Canadian Journal of Zoology 66(11):2449-2453, 1988) and the plate is covered with parafilm to make a feeding sachet. Artificial diet is either mixed with the solution of sterile water with 0.5% sucrose and essential amino acids only as a negative control, or mixed with Cy3-PNA solutions. Cy3-PNA solutions are mixed with artificial diet to obtain final concentrations between 0.5 to 10 mg/L. […]

[2] = test system: its target bacterial strains; settings: against its target bacterial strains; cited from earlier work
Myzus persicae [3] = assay: Bcr1 dsRNA in artificial diet, aphid survival (Example 9); format: in vivo; settings: Myzus persicae second and third instar, final 0.5 to 5 μg/ml dsRNA, fed 24 hr, mortality checked every 24 h for 4 days
Protocol: (§2) Aphids are one of the most important agricultural insect pests. They cause direct feeding damage to crops and serve as vectors of plant viruses. In addition, aphid honeydew promotes the growth of sooty mold and attracts nuisance ants. The use of chemical treatments, unfortunately still widespread, leads to the selection of resistant individuals whose eradication becomes increasingly difficult. Therapeutic design: dsRNA solutions are formulated with 0 (negative control), 0.5, 1, or 5 μg/mL of Bcr1 dsRNA from Example 7 in 10 mL of TE buffer with 0.5% sucrose and essential amino acids.
as §1, with “(16 hr” for “(16 h”, “plants. […]” for “plants.”

Rhopalosiphum maidis = assay: Bcr1 dsRNA in artificial diet, aphid survival (Example 3); format: in vivo; settings: Rhopalosiphum maidis second and third instar, final 0.5 to 5 μg/ml dsRNA, fed 24 hr, mortality checked every 24 h for 4 days
Protocol: as §2, with “μg/ml” for “μg/mL”, “2” for “7”
as §1, with “C.), fava bean” for “C.),”, “plants. […]” for “plants.”

Cy3-Gaatgcagctgc (antisense GAATGCAGCTGC; all peptide nucleic acid (PNA), 5' {Cy3}; Cy3 attached via DBCO-azide click chemistry) [Cy3-PNA, antisense PNA against bacteriocyte target gene Bcr1 joined to Cy3 dye through click chemistry]
survival rate of aphids compared to the control treated aphids (Myzus persicae [1]): decreased

ITSISLCTPGCKTGALMGCNMKTATCHCSIHVSK [nisin]
concentration showing antimicrobial activity [2]: single-digit nanomolar concentration

B1: Bcr1 dsRNA: dsRNA hairpin targeting the Bcr1 gene (ACYPI32128), SEQ ID NO: 93 (nucleic acid, listed as Acyrthosiphon pisum)
chain: AUGAAACUGCUGCAUGGCUUUCUGAUUAUUAUGCUGACCAUGCAUCUGAGCAUUCAGUAUGCGUAUGGCGGCCCGUUUCUGACCAAAUAUCUGUGCGAUCGCGUGUGCCAUAAACUGUGCGGCGAUGAAUUUGUGUGCAGCUGCAUUCAGUAUAAAAGCCUGAAAGGCCUGUGGUUUCCGCAUUGCCCGACCGGCAAAGCGAGCGUGGUGCUGCAUAACUUUCUGACCAGCCCGUUUUUUUUUUCGGGCUGGUCAGAAAGUUAUGCAGCACCACGCUCGCUUUGCCGGUCGGGCAAUGCGGAAACCACAGGCCUUUCAGGCUUUUAUACUGAAUGCAGCUGCACACAAAUUCAUCGCCGCACAGUUUAUGGCACACGCGAUCGCACAGAUAUUUGGUCAGAAACGGGCCGCCAUACGCAUACUGAAUGCUCAGAUGCAUGGUCAGCAUAAUAAUCAGAAAGCCAUGCAGCAGUUUCAU
survival rate of aphids compared to the control treated aphids (Myzus persicae [3]): decreased
survival rate of aphids compared to the control treated aphids (Rhopalosiphum maidis): decreased
